Experimental data reported in US11554171B2, “Compounds and methods for the targeted degradation of bromodomain-containing proteins” (Arvinas Operations, Inc., priority 2015, dated 2023).

System: c-myc in 22RV-1 cells
Experiment: Human c-myc ELISA assay
Assay type: cell-based
Settings: Homo sapiens; for Emax: 22Rv1, 18 h, read-out: Degradation of BRD4: Maximum inhibition (%) c-Myc ELISA in 22RV1 cells; for DC50: 22Rv1, read-out: Degradation of BRD4: DC50 (uM) c-Myc ELISA in 22RV1 cells
In short: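 22RV-1 cells treated 18 h with 8-point 1:3 compound dilutions (final top 300 nM or 1 μM, 0.1% DMSO). Cells lysed in RIPA buffer with protease/phosphatase inhibitors, and c-myc protein in cleared lysate quantified by ELISA against a standard curve. DC50 reported for c-myc suppression.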

| DC50 | SMILES | Emax |
| --- | --- | --- |
| < 0.01 µM | Cc1ncsc1-c1ccc([C@H](C)NC(=O)[C@@H]2C[C@@H](O)CN2C(=O)[C@@H](NC(=O)COc2cc(F)cc(O[C@H]3C[C@H](NC(=O)C[C@@H]4N=C(c5ccc(Cl)cc5)c5c(sc(C)c5C)-n5c(C)nnc54)C3)c2)C(C)(C)C)cc1 [Example 215] | 98% |
| < 0.01 µM | Cc1ncsc1-c1ccc([C@H](C)NC(=O)[C@@H]2C[C@@H](O)CN2C(=O)[C@@H](NC(=O)c2cc3cc(O[C@H](C)CNC(=O)C[C@@H]4N=C(c5ccc(Cl)cc5)c5c(sc(C)c5C)-n5c(C)nnc54)ccc3o2)C(C)(C)C)cc1 [Example 206, (2S,4R)-1-[(2S)-2-[(5-{[(2R)-1-{2-[(9S)-7-(4-chlorophenyl)-4,5,13-trimethyl-3-thia-1,8,11,12-tetraazatricyclo[8.3.0.0^2,^6]trideca-2(6),4,7,10,12-pentaen-9-yl]acetamido}propan-2-yl]oxy}-1-benzofuran-2-yl)formamido]-3,3-dimethylbutanoyl]-4-hydroxy-N-[(1S)-1-[4-(4-methyl-1,3-thiazol-5-yl)phenyl]ethyl]pyrrolidine-2-carboxamide] | 90% |
| 0.1 to 1 µM | Cc1ncsc1-c1ccc([C@H](C)NC(=O)[C@@H]2C[C@@H](O)CN2C(=O)[C@@H](NC(=O)COC[C@H](O)CN2CCN(C(=O)C[C@@H]3N=C(c4ccc(Cl)cc4)c4c(sc(C)c4C)-n4c(C)nnc43)CC2)C(C)(C)C)cc1 [Example 328] | 61% |
| 0.01 to 0.1 µM | Cc1ncsc1-c1ccc([C@H](C)NC(=O)[C@@H]2C[C@@H](O)CN2C(=O)[C@@H](NC(=O)COCCOCCCOc2ccc([C@H](C)NC(=O)C[C@@H]3N=C(c4ccc(Cl)cc4)c4c(sc(C)c4C)-n4c(C)nnc43)cc2)C(C)(C)C)cc1 [Example 34] | 99.7% |
| 0.01 to 0.1 µM | Cc1ncsc1-c1ccc(CNC(=O)[C@@H]2C[C@@H](O)CN2C(=O)[C@@H](NC(=O)COCCCOCC#Cc2ccc([C@@H](C)NC(=O)C[C@@H]3N=C(c4ccc(Cl)cc4)c4c(sc(C)c4C)-n4c(C)nnc43)cc2)C(C)(C)C)cc1 [Example 39, (2S,4R)-1-[(2S)-2-(2-{3-[(3-{4-[(1R)-1-{2-[(9S)-7-(4-chlorophenyl)-4,5,13-trimethyl-3-thia-1,8,11,12-tetraazatricyclo[8.3.0.0^2,^6]trideca-2(6),4,7,10,12-pentaen-9-yl]acetamido}-ethyl]phenyl}prop-2-yn-1-yl)oxy]propoxy}acetamido)-3,3-dimethylbutanoyl]-4-hydroxy-N-{[4-(4-methyl-1,3-thiazol-5-yl)phenyl]methyl}pyrrolidine-2-carboxamide] | 99% |
| > 1 µM | Cc1ncsc1-c1ccc(CNC(=O)[C@@H]2C[C@@H](O)CN2C(=O)[C@@H](NC(=O)CCN2CCC(OCCNC(=O)C[C@@H]3N=C(c4ccc(Cl)cc4)c4c(sc(C)c4C)-n4c(C)nnc43)CC2)C(C)(C)C)cc1 [Example 123] | 19.7% |
| 0.01 to 0.1 µM | Cc1ncsc1-c1ccc([C@H](C)NC(=O)[C@@H]2C[C@@H](O)CN2C(=O)[C@@H](NC(=O)CN2CCN(C3CC4(C3)CN(C(=O)C[C@@H]3N=C(c5ccc(Cl)cc5)c5c(sc(C)c5C)-n5c(C)nnc53)C4)C[C@H]2C)C(C)(C)C)cc1 [Example 356] | 100% |
| 0.01 to 0.1 µM | Cc1ncsc1-c1ccc(CNC(=O)[C@@H]2C[C@@H](O)CN2C(=O)[C@@H](NC(=O)COc2ccccc2C(=O)N2CC[C@H](NC(=O)C[C@@H]3N=C(c4ccc(Cl)cc4)c4c(sc(C)c4C)-n4c(C)nnc43)C2)C(C)(C)C)cc1 [Example 87] | 96.4% |
| 0.01 to 0.1 µM | Cc1ncsc1-c1ccc(CNC(=O)[C@@H]2C[C@@H](O)CN2C(=O)[C@@H](NC(=O)COCCCSCCNC(=O)C[C@@H]2N=C(c3ccc(Cl)cc3)c3c(sc(C)c3C)-n3c(C)nnc32)C(C)(C)C)cc1 [Example 100] | 99% |
| 0.01 to 0.1 µM | Cc1ncsc1-c1ccc([C@H](C)NC(=O)[C@@H]2C[C@@H](O)CN2C(=O)[C@@H](NC(=O)Cc2ccc(O[C@H]3C[C@H](NC(=O)C[C@@H]4N=C(c5ccc(Cl)cc5)c5c(sc(C)c5C)-n5c(C)nnc54)C3)cc2)C(C)C)cc1 [Example 280] | 95.4% |
| < 0.01 µM | Cc1ncsc1-c1ccc([C@H](C)NC(=O)[C@@H]2C[C@@H](O)CN2C(=O)[C@@H](NC(=O)c2cc3ccc(O[C@H]4C[C@@H](NC(=O)C[C@@H]5N=C(c6ccc(Cl)cc6)c6c(sc(C)c6C)-n6c(C)nnc65)C4)cc3o2)C(C)(C)C)cc1 [Example 212] | 95% |

Further lines, the molecule ahead of its results:

| SMILES | DC50 | Emax |
| --- | --- | --- |
| Cc1sc2c(c1C)C(c1ccc(Cl)cc1)=N[C@@H](CC(=O)N[C@H]1C[C@@H](Oc3cccc(-c4cnn([C@H](C(=O)N5C[C@H](O)C[C@H]5C(=O)N[C@@H](C)c5ccc(-c6nccn6C)cc5)C(C)C)c4)c3)C1)c1nnc(C)n1-2 [Example 291] | > 1 µM | 22.2% |
| Cc1ncsc1-c1ccc([C@H](CO)NC(=O)[C@@H]2C[C@@H](O)CN2C(=O)[C@@H](NC(=O)CN2CCC(O[C@H]3C[C@H](NC(=O)C[C@@H]4N=C(c5ccc(Cl)cc5)c5c(sc(C)c5C)-n5c(C)nnc54)C3)CC2)C(C)(C)C)cc1 [Example 351, (2S,4R)-1-[(2S)-3,3-dimethyl-2-(2-{4-[(1,3-trans)-3-{2-[(9S)-7-(4-chlorophenyl)-4,5,13-trimethyl-3-thia-1,8,11,12-tetraazatricyclo[8.3.0.0^2,^6]trideca-2(6),4,7,10,12-pentaen-9-yl]acetamido}cyclobutoxy]piperidin-1-yl}acetamido)butanoyl]-4-hydroxy-N-[(1R)-2-hydroxy-1-[4-(4-methyl-1,3-thiazol-5-yl)phenyl]ethyl]pyrrolidine-2-carboxamide] | < 0.01 µM | 100% |
| Cc1noc(-c2ccc([C@H](C)NC(=O)[C@@H]3C[C@@H](O)CN3C(=O)[C@@H](NC(=O)Cc3ccc(O[C@H]4C[C@H](NC(=O)C[C@@H]5N=C(c6ccc(Cl)cc6)c6c(sc(C)c6C)-n6c(C)nnc65)C4)cc3)C(C)(C)C)cc2)n1 [Example 275] | 0.1 to 1 µM | 50.1% |
| Cc1ncsc1-c1ccc([C@H](C)NC(=O)[C@@H]2C[C@@H](O)CN2C(=O)[C@@H](NC(=O)COc2ccc(O[C@H]3C[C@H](NC(=O)C[C@@H]4N=C(c5ccc(Cl)cc5)c5c(sc(C)c5C)-n5c(C)nnc54)C3)nc2)C(C)(C)C)cc1 [Example 141, (2S,4R)-1-[(2S)-3,3-dimethyl-2-[2-({6-[(1,3trans)-3-{2-[(9S)-7-(4-chlorophenyl)-4,5,13-trimethyl-3-thia-1,8,11,12-tetraazatricyclo[8.3.0.0^2,^6]trideca-2(6),4,7,10,12-pentaen-9-yl]acetamido}cyclobutoxy]pyridin-3-yl}oxy)acetamido]butanoyl]-4-hydroxy-N-[(1S)-1-[4-(4-methyl-1,3-thiazol-5-yl)phenyl]ethyl]pyrrolidine-2-carboxamide] | < 0.01 µM | 98% |
| Cc1ncoc1-c1ccc(CNC(=O)[C@@H]2C[C@@H](O)CN2C(=O)[C@@H](NC(=O)COc2ccc(O[C@H]3C[C@@H](NC(=O)C[C@@H]4N=C(c5ccc(Cl)cc5)c5c(sc(C)c5C)-n5c(C)nnc54)C3)nc2)C(C)(C)C)cc1 [Example 258] | 0.01 to 0.1 µM | 87.5% |
| Cc1ncsc1-c1ccc([C@H](C)NC(=O)[C@@H]2C[C@@H](O)CN2C(=O)[C@@H](NC(=O)c2cc3cc(O[C@H]4C[C@@H](NC(=O)C[C@@H]5N=C(c6ccc(Cl)cc6)c6c(sc(C)c6C)-n6c(C)nnc65)C4)ccc3o2)C(C)C)cc1 [Example 336] | < 0.01 µM | 98% |
| Cc1ncsc1-c1ccc([C@H](C)NC(=O)[C@@H]2C[C@@H](O)CN2C(=O)C(C(C)C)n2cc(-c3cccc(OCCNC(=O)C[C@@H]4N=C(c5ccc(Cl)cc5)c5c(sc(C)c5C)-n5c(C)nnc54)c3)cn2)cc1 (some centres unmarked) [Example 222] | < 0.01 µM | 100% |
| Cc1ncsc1-c1ccc([C@H](C)NC(=O)[C@@H]2C[C@@H](O)CN2C(=O)[C@@H](NC(=O)Cc2ccc(O[C@H]3C[C@@H](NC(=O)C[C@@H]4N=C(c5ccc(Cl)cc5)c5c(sc(C)c5C)-n5c(C)nnc54)C3)nc2)C(C)(C)C)cc1 [Example 270, (2S,4R)-1-[(2S)-3,3-dimethyl-2-(2-{6-[(1,3cis)-3-{2-[(9S)-7-(4-chlorophenyl)-4,5,13-trimethyl-3-thia-1,8,11,12-tetraazatricyclo[8.3.0.0^2,^6]trideca-2(6),4,7,10,12-pentaen-9-yl]acetamido}cyclobutoxy]pyridin-3-yl}acetamido)butanoyl]-4-hydroxy-N-[(1S)-1-[4-(4-methyl-1,3-thiazol-5-yl)phenyl]ethyl]pyrrolidine-2-carboxamide] | < 0.01 µM | 92.2% |
| Cc1ncsc1-c1ccc(CNC(=O)[C@@H]2C[C@@H](O)CN2C(=O)[C@@H](NC(=O)Cc2ccc(OCCNC(=O)C[C@@H]3N=C(c4ccc(Cl)cc4)c4c(sc(C)c4C)-n4c(C)nnc43)cc2)C(C)(C)C)cc1 [Example 80, (2S,4R)-1-[(2S)-2-{2-[4-(2-{2-[(9S)-7-(4-chlorophenyl)-4,5,13-trimethyl-3-thia-1,8,11,12-tetraazatricyclo[8.3.0.0^2,^6]trideca-2(6),4,7,10,12-pentaen-9-yl]acetamido}ethoxy)phenyl]acetamido}-3,3-dimethylbutanoyl]-4-hydroxy-N-{[4-(4-methyl-1,3-thiazol-5-yl)phenyl]methyl}pyrrolidine-2-carboxamide] | 0.01 to 0.1 µM | 97.5% |
| Cc1ncsc1-c1ccc(CNC(=O)[C@@H]2C[C@@H](O)CN2C(=O)[C@@H](NC(=O)COc2ccc(O[C@H]3C[C@H](NC(=O)C[C@@H]4N=C(c5ccc(Cl)cc5)c5c(sc(C)c5C)-n5c(C)nnc54)C3)nc2)C(C)(C)C)cc1 [Example 140] | < 0.01 µM | 98% |
| Cc1sc2c(c1C)C(c1ccc(Cl)cc1)=N[C@@H](CC(=O)N[C@H]1C[C@@H](Oc3cc(-c4cnn([C@@H](C(=O)N5C[C@H](O)C[C@H]5C(=O)N[C@@H](C)c5ccc(-c6nccn6C)cc5)C(C)C)c4)ccn3)C1)c1nnc(C)n1-2 [Example 292] | > 1 µM | 10% |
